Oligonucleotides are written 5' to 3', each unit as a sugar letter and its base; * is a phosphorothioate linkage, no mark a phosphodiester; rarer units and linkages stand in square brackets, end groups in braces. Plain capitals give the bases only. r = 2'-OH (RNA); f = 2'-fluoro

Consider 13 molecules from patent US9012420B2, “Aptamer for chymase, and use thereof” (Ribomic Inc., priority 2009, dated 2015).

The labels stand for the following.
T1: recombinant chymase (expressed by yeast) (Homo sapiens, UniProt P23946)
T1 construct: purchased SIGMA; host or cells: yeast
T1 sequence (P23946 22-247): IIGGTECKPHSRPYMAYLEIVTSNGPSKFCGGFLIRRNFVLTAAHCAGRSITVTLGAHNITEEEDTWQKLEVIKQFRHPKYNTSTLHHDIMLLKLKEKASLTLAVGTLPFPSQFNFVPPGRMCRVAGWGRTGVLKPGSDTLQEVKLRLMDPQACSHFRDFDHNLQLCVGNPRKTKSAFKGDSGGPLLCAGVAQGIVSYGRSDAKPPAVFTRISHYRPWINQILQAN

B1: 14 (nucleic acid)
chain: rGrGrGrAfCrGrGfUrArGrGrArAfUfUfCfUfCrGfUfUfCfCfUrGrAfCrArGfCrAfUfUfUrGrArGrAfUrArGrAfUfUfUrArArAfCrArArAfCrGfCrAfCrAfUrArGrArArGrArGfCrGrGfCfCrGfC
modifications: aptamer
B2: 4 (nucleic acid)
chain: rGrGrGrAfCrGrGfUrArGrGrArAfUfUfCrGfUfCfCrAfUfUfCfUrAfCrArGrAfUrArGrArGrAfUrArArArGfUrArGrArAfUfUfUrArAfCrArArArAfCrAfUrArGrArArGrArGfCrGrGfCfCrGfC
modifications: aptamer
B3: 13 (nucleic acid)
chain: rGrGrGrAfCrGrGfUrArGrGrArAfUfUfCfCrGfCrArAfCfCrAfUfCfCfCrGfUrArAfCfUrAfUrGrGfUfUrArGrAfUrArGrArGfUfUrArArArArAfCfCrAfUrArGrArArGrArGfCrGrGfCfCrGfC
modifications: aptamer

This data set deals with T1, recombinant chymase (expressed by yeast). The data set can be described thus: Chymase inhibitory activity using angiotensin I as substrate, recombinant chymase. It is filed as biochemical. The following applies: final 50 μM, chymase 0.2-0.5 nM, 37° C. 90 min, one measurement. As for the experimental part:
A second method of evaluation employs a native substrate. A useful native substrate for chymase is angiotensin I. Here, His-Leu, a peptide fragment released upon degradation of angiotensin I, is fluorescently derivatized, and the fluorescence intensity therefrom is quantified.
In the assay, an enzyme reaction is carried out in 50 μL of solution C. First, 0.3-0.75 ng of chymase (recombinant, manufactured by SIGMA; or native, manufactured by Calbiochem) is diluted in solution C to obtain 5 μL chymase solution. Each nucleic acid is prepared in solution C to obtain 25 μL solutions. 5 μL of each chymase dilution and 25 μL of each nucleic acid solution are mixed, and then the mixture is incubated at 37° C. for 5 minutes. […] The angiotensin I solution is added to the mixture of chymase and nucleic acid, and the enzyme reaction is initiated. After the reaction was allowed to proceed at 37° C. for 90 minutes, 25 μL of ice-cooled 30% trichloroacetic acid solution is added to terminate the reaction. The entire mixture is centrifuged at 4° C., 14000 rpm for 10 minutes, and 30 μL of the resulting supernatant is used for the subsequent reaction for fluorescent derivatization.
After 30 μL of the supernatant is added to a 96-well plate (Black, manufactured by Costar), 15 μL of 2% o-phthalaldehyde (manufactured by SIGMA) solution in methanol and 170 μL of 0.3M NaOH solution are mixed in each well, and the plate is allowed to stand at room temperature for 10 minutes. Subsequently, 25 μL of 3M HCl solution is added to terminate the reaction. The plate is set to the microplate reader SpectraMax190 (manufactured by Molecular Devices Corporation), and the fluorescence intensity is determined at an excitation wavelength of 355 nm and a fluorescence wavelength of 460 nm.
For control, samples are treated and analyzed in the same manner in two cases: use of SEQ ID NO: 58 (negative control) and use of chymostatin, a known chymotrypsin-like serine protease inhibitor (positive control). In both cases, fluorescence intensity obtained at 0 minute reaction time serves as a blank determination. Taking the fluorescence intensity detected with the addition of an equal volume of solution C, in place of each nucleic acid, in the chymase enzyme reaction as 100%, the inhibitory rate for each test substance is calculated, and the inhibitor concentration required to cause a 50% inhibition of the enzyme activity (IC50) is determined.
For further assessment of the inhibitory activity of the nucleic acid of the present invention, the enzyme activity of chymase was measured using angiotensin I, which is a native substrate for chymase, according to the following method. Angiotensin I is converted by chymase to angiotensin II, during which a peptide fragment His-Leu is released. Since the peptide His-Leu is fluorescently derivatized by o-phthalaldehyde, its fluorescence intensity can be quantitatively measured.
The total volume of solution for an enzyme reaction in the assay was set to 50 μL, and the reaction was performed in solution C buffer. First, 0.3-0.75 ng of chymase (recombinant, (manufactured by SIGMA) or native (manufactured by Calbiochem)) was diluted with solution C to give 5 μL thereof. Here, the recombinant is chymase expressed by yeast, and the native is chymase purified from human skin mast cell. The nucleic acid was serially diluted with solution C at a concentration of 0.0027-2 μM to give 25 μL thereof. The chymase solution (5 μL) and the nucleic acid solution (25 μL) were mixed, and the mixture was incubated at 37° C. for 5 min. On the other hand, […] angiotensin I (manufactured by PEPTIDE INSTITUTE, INC.) was prepared in solution C to give […] thereof, which was incubated at 37° C. for 5 min. The angiotensin I solution was added to a mixture of chymase and nucleic acid to start an enzyme reaction. The final chymase concentration of the reaction solution was 0.2-0.5 nM, and the final substrate concentration was 50 μM. […]
Consider “53 (GGGUAACUAUGGUUAGAUAGAGUUAAAAACCAUAGAAGACCC; 2'-fluoro at CU, RNA at AG, backbone not given here) [compound 53]”, for which the half-inhibitory concentration (IC50) is 446 nM.
In the case of “54 (UAACUAUGGUUAGAUAGAGUUAAAAACCAUAGAAGA; 2'-fluoro at CU, RNA at AG, backbone not given here) [compound 54]”, the IC50 was 397 nM.
Take “55 (CUAUGGUUAGAUAGAGUUAAAAACCAUAG; 2'-fluoro at CU, RNA at AG, backbone not given here) [compound 55]”: the IC50 was 354 nM.
With “56 (GGGUUAGAUAGAGUUAAAAACCC; 2'-fluoro at CU, RNA at AG, backbone not given here) [compound 56]” the figure was 235 nM.
With “65 (rGrGfCrArGrAfUrArGrArGfUfUrArArArGfCfC) [compound 65]” the figure was 274 nM; with “70 (GGGTTAGAUAGAGUUAAAAACCC; chemistry not given here) [compound 70]”, 239 nM; with “71 (GGGUUAGAUAGAGTUAAAAACCC; chemistry not given here) [compound 71]”, 161 nM.
Next, “72 (GGGTTAGAUAGAGTUAAAAACCC; chemistry not given here) [compound 72]”: 65 nM; `CC(C)C[C@H](NC(=O)[C@@H](NC(=O)N[C@@H](Cc1ccccc1)C(=O)O)[C@@H]1CCN=C(N)N1)C(=O)N[C@H](C=O)Cc1ccccc1` [chymostatin, reference compound]: 450 to 600 nM; “GGGU(F)U(F)GAAGAU(F)AU(F)U(F)AAAGAAC(F)C(F)C(F) (GGGUUGAAGAUAUUAAAGAACCC; 2'-fluoro at CU, RNA at AG, backbone not given here) [SEQ ID NO: 58]”: > 1000 nM.
Turning to B1, the IC50 is 22 nM.
Next, B2: 3 nM; B3: 41 nM.

By IC50 is commonly meant the point on the concentration scale where inhibition reaches its midpoint.
